Data as given in US6511976B1, “Halogen substituted tetracyclic tetrahydrofuran derivatives” (Jannsen Pharmaceutica, N.V., priority 1997, dated 2003).

What was measured:
[1] = dose of 300 mg/kg; cited from earlier work
[2] = system: dopamine (symptoms elicited with the dopamine agonist apomorphine); test: ATN Test in Rats: apomorphine interaction; format: in vivo; conditions: observed at 30 minutes following subcutaneous administration
Description: (§1) The antipsychotic activity of the subject compounds is evidenced by the experimental data obtained in the combined apomorphine (APO), tryptamine (TRY) and norepinephrine (NOR) test in rats. Said combined apomorphine, tryptamine and norepinephrine test is described in Arch. Int. Pharmacodyn., 227, 238-253 (1977) and provides an empirical evaluation of the relative specificity with which drugs may effect particular neurotransmitter systems centrally (CNS) as well as peripherally. […] The favourable pharmacological property of the present compounds compared to the compounds specifically disclosed in WO 97/38991 lies in their ability to antagonize the central symptoms elicited by apomorphine and tryptamine.

[3] = system: serotonin (central symptoms elicited with the serotonin agonist tryptamine); test: ATN Test in Rats: tryptamine interaction; format: in vivo; conditions: observed at 90 minutes following subcutaneous administration
Description: as §1

[4] = system: mCPP induced effects; test: mCPP Test on Rats (pre-test time T of 1 hour); format: in vivo; conditions: test compound at pre-test time T of 1 hour; 1 mg/kg mCPP intravenously 15 minutes prior to test; Open Field Test
Experimental: Rats were treated with the test compound at a varying dose at a pre-test time T of 1 hour and with 1 mg/kg mCPP (metachlorophenylpiperazine), injected intravenously, 15 minutes prior to the test. After pre-test time T elapsed, treated rats were submitted to the “Open Field Test on Rats” as described in Drug Dev. Res. 18, 119-144 (1989), but using an infra-red light source instead of a Kleverlux® (12V/20W) light source. […] Compound numbers 2 and 8 through 16 were active at a test dose of 2.5 mg/kg or lower. Other compounds were either not tested or were active at a higher dose.

SMILES	activity as antidepressant [1]	ED50, apomorphine interaction: antagonism of agitation and stereotypy [2] [mg/kg]	ED50, tryptamine interaction: antagonism of backward locomotion [3] [mg/kg]	ED50, tryptamine interaction: antagonism of bilateral clonic convulsions [3]	active dose (40% or more of the tested rats showed suppression of the mCPP induced effects, mCPP-antagonism) [4] [mg/kg]
CNCC1CC2c3ccccc3Cc3ccccc3C2O1.O=C(O)C(=O)O (racemic) [(±)-3,3a,8,12b-tetrahydro-N-methyl-2H-dibenzo[3,4:6,7]-cyclohepta-[1,2-b]furan-2-methanamine oxalic acid]	inactive	–	–	–	–
CN(C)CC1CC2c3ccccc3Cc3ccccc3C2O1 (single isomer, unassigned) [d]	–	2.7	0.2	0.15 mg/kg	–
CN(C)CC1CC2c3ccccc3Cc3ccccc3C2O1 (single isomer, unassigned) [a]	–	>10	10	≧10 mg/kg	–
CN(C)CC1CC2c3ccccc3Cc3ccccc3C2O1 (single isomer, unassigned) [b]	–	>10	1.3	1.3 mg/kg	–
CN(C)CC1CC2c3ccccc3Cc3ccc(F)cc3C2O1.Cl (racemic) [Compound 2, (±)-(2α,3aβ,12bα)-11-fluoro-3,3a,8,12b-tetrahydro N,N-dimethyl-2H-dibenzo[3,4:6,7]cyclohepta[1,2-b]furan-2-methanamine hydrochloride]	–	–	–	–	≤ 2.5
CN(C)CC1CC2c3ccccc3Cc3ccc(F)cc3C2O1.O=C(O)C(O)C(O)C(=O)O (stereo not drawn) [Compound 11, [B-(2α,3aβ,12bα)]-11-fluoro-3,3a,8,12b-tetrahydro-N,N-dimethyl-2H-dibenzo[3,4:6,7]cyclohepta[1,2-b]furan-2-methanamine (+)-[R-R*,R*)]-2,3-dihydroxybutanedioate (1:1)]	–	2.0	0.5	0.4 mg/kg	–
CN(C)CC1CC2c3ccccc3Cc3ccccc3C2O1 (single isomer, unassigned) [c]	–	>10	10	1.25 mg/kg	–
